Source: patent publication US11214803B2, “Modulators of YAP1 expression” (Ionis Pharmaceuticals, Inc., priority 2019, dated 2022)
Marks after values point to notes of the source that are not given here. Strand notation (5' to 3'): a small letter for the sugar, then the base; units joined by * are phosphorothioate-linked, units joined directly phosphodiester-linked; [ ] holds rarer units or linkages, { } end groups; capitals alone tell only the bases. k = constrained ethyl (cEt); [5mC] = 5-methylcytosine; d = 2'-deoxy (DNA)

Legend:
Yap1 mRNA [1] = assay: Antisense inhibition of human Yap1 in A-431 cells by cEt gapmers, single dose (Example 4, RTS4814); type: cell-based
Summary of the method: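 A-431 cells took up 3-10-3 cEt gapmers (16-mer, full phosphorothioate, 5-methylcytosines) by free uptake at 2,000 nM for about 48 h. Yap1 mRNA was quantified by qRT-PCR, normalized to total RNA (RIBOGREEN), and reported as % of untreated control.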

Yap1 mRNA [2] = assay: Dose-dependent inhibition of human Yap1 in A-431 cells (Example 8, 10,000 cells per well, RTS4814); type: cell-based; conditions: A-431 cells; for IC50: Yap1 mRNA
Summary of the method: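 A-431 cells (10,000/well) dosed with modified oligonucleotides by free uptake; Yap1 mRNA measured ~48 h later with primer-probe set RTS4814, normalized to total RNA (RIBOGREEN). Values are % of untreated control; IC50 from linear regression on log/linear plot.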

[3] = Yap1 mRNA remaining as percent of untreated control, 3-10-3 cEt gapmers, A-431 cells, Table 37
[4] = Yap1 mRNA remaining as percent of untreated control, 3-10-3 cEt gapmers, A-431 cells, Table 36
[5] = Table 14, A-431 cells, 5,000 cells per well, free uptake, 2,000 nM, approximately 48 hours, RTS4814, normalized to RIBOGREEN, Yap1 mRNA relative to untreated control, * = targets amplicon region of primer probe set
[6] = Table 15, A-431 cells, 5,000 cells per well, free uptake, 2,000 nM, approximately 48 hours, RTS4814, normalized to RIBOGREEN, Yap1 mRNA relative to untreated control, * = targets amplicon region of primer probe set
[7] = Table 17, A-431 cells, 5,000 cells per well, free uptake, 2,000 nM, approximately 48 hours, RTS4814, normalized to RIBOGREEN, Yap1 mRNA relative to untreated control cells
[8] = Table 16, A-431 cells, 5,000 cells per well, free uptake, 2,000 nM, approximately 48 hours, RTS4814, normalized to RIBOGREEN, Yap1 mRNA relative to untreated control cells

Substance: 1076183 (k[5mC]*kT*kT*d[5mC]*dT*dA*dT*dA*dA*dT*dT*dA*dG*k[5mC]*k[5mC]*kA; antisense) [compound 1076183]
- YAP1 (% UTC) (Yap1 mRNA [1]; [3]): 7 % UTC
- % UTC (Yap1 mRNA) (Yap1 mRNA [2]; 31.3 nM): 65 % UTC
- % UTC (Yap1 mRNA) (Yap1 mRNA [2]; 125.0 nM): 22 % UTC
- % UTC (Yap1 mRNA) (Yap1 mRNA [2]; 500.0 nM): 9 % UTC
- % UTC (Yap1 mRNA) (Yap1 mRNA [2]; 2000.00 nM): 6 % UTC
- IC50 (Yap1 mRNA [2]): 40 nM

Substance: 1074775 (kG*kG*kT*dT*dT*dA*dT*dT*dG*dT*dA*dA*dA*kA*kG*k[5mC]; antisense) [compound 1074775]
- YAP1 (% UTC) (Yap1 mRNA [1]; [3]): 3 % UTC
- % UTC (Yap1 mRNA) (Yap1 mRNA [2]; 31.3 nM): 26 % UTC
- % UTC (Yap1 mRNA) (Yap1 mRNA [2]; 125.0 nM): 5 % UTC
- % UTC (Yap1 mRNA) (Yap1 mRNA [2]; 500.0 nM): 2 % UTC
- % UTC (Yap1 mRNA) (Yap1 mRNA [2]; 2000.00 nM): 2 % UTC
- IC50 (Yap1 mRNA [2]): < 20 nM

Substance: 1075222 (kG*kT*kA*dT*dT*dT*dG*dG*dA*d[5mC]*dA*dA*d[5mC]*kT*k[5mC]*kT; antisense) [compound 1075222]
- YAP1 (% UTC) (Yap1 mRNA [1]; [4]): 3 % UTC
- % UTC (Yap1 mRNA) (Yap1 mRNA [2]; 31.3 nM): 75 % UTC
- % UTC (Yap1 mRNA) (Yap1 mRNA [2]; 125.0 nM): 30 % UTC
- % UTC (Yap1 mRNA) (Yap1 mRNA [2]; 500.0 nM): 8 % UTC
- % UTC (Yap1 mRNA) (Yap1 mRNA [2]; 2000.00 nM): 5 % UTC
- IC50 (Yap1 mRNA [2]): 100 nM

Substance: 1076352 (kG*kA*kT*dA*dA*d[5mC]*d[5mC]*d[5mC]*dT*dG*dA*dA*dA*k[5mC]*kA*kA; antisense) [Compound 1076352]
- YAP1 (% UTC) (Yap1 mRNA [1]; [5]): 37 % UTC

Substance: 1075617 (kT*kA*kA*dG*dA*dA*d[5mC]*dG*dA*d[5mC]*dA*dT*dA*kT*kG*k[5mC]; antisense) [Compound 1075617]
- YAP1 (% UTC) (Yap1 mRNA [1]; [6]): 27 % UTC

Substance: 1075875 (kA*k[5mC]*kT*dT*dA*dA*d[5mC]*dA*dA*d[5mC]*d[5mC]*d[5mC]*dT*kA*k[5mC]*kG; antisense) [Compound 1075875]
- YAP1 (% UTC) (Yap1 mRNA [1]; [7]): 72 % UTC

Substance: 1074274 (antisense kG*kT*kT*d[5mC]*dT*dT*dA*dT*dG*dG*dT*dT*dT*kA*kT*kA) [Compound 1074274]
- YAP1 (% UTC) (Yap1 mRNA [1]; [8]): 4 % UTC

Substance: 1074135 (k[5mC]*k[5mC]*kG*d[5mC]*dG*dG*d[5mC]*d[5mC]*d[5mC]*d[5mC]*dG*d[5mC]*dA*kT*k[5mC]*k[5mC]; antisense) [compound 1074135]
- YAP1 (% UTC) (Yap1 mRNA [1]; [3]): 91 % UTC

Substance: 1076066 (k[5mC]*kA*kT*dA*dT*dA*dA*dG*dA*dT*dG*dT*dT*kT*kG*k[5mC]; antisense) [Compound 1076066]
- YAP1 (% UTC) (Yap1 mRNA [1]; [8]): 8 % UTC

Substance: 1075095 (k[5mC]*kT*kT*dG*dA*dA*dA*dA*d[5mC]*dA*dA*dG*d[5mC]*k[5mC]*kA*k[5mC]; antisense) [compound 1075095]
- YAP1 (% UTC) (Yap1 mRNA [1]; [3]): 63 % UTC

Substance: 1076355 (k[5mC]*kT*kA*d[5mC]*dA*dA*dA*dA*dG*dA*dG*d[5mC]*dT*kA*kT*kG; antisense) [Compound 1076355]
- YAP1 (% UTC) (Yap1 mRNA [1]; [7]): 92 % UTC

Substance: 1075680 (kA*kT*kT*dA*dT*dT*dA*d[5mC]*d[5mC]*d[5mC]*d[5mC]*dT*dT*k[5mC]*kT*kA; antisense) [Compound 1075680]
- YAP1 (% UTC) (Yap1 mRNA [1]; [5]): 73 % UTC

Substance: 1075299 (kG*kA*kT*dA*dA*d[5mC]*d[5mC]*dA*dA*dT*dG*d[5mC]*dA*k[5mC]*k[5mC]*kA; antisense) [Compound 1075299]
- YAP1 (% UTC) (Yap1 mRNA [1]; [7]): 21 % UTC

Substance: 1074787 (k[5mC]*kA*kA*d[5mC]*d[5mC]*dA*dT*dA*dA*dG*dT*dA*dG*kA*kT*k[5mC]; antisense) [Compound 1074787]
- YAP1 (% UTC) (Yap1 mRNA [1]; [7]): 13 % UTC

Substance: 1075458 (antisense k[5mC]*k[5mC]*kA*d[5mC]*dA*dA*dT*dA*dT*dA*d[5mC]*dT*d[5mC]*k[5mC]*kA*kA) [Compound 1075458]
- YAP1 (% UTC) (Yap1 mRNA [1]; [8]): 7 % UTC

Substance: 1075319 (antisense kT*kA*kT*dA*dA*d[5mC]*dA*dA*dT*d[5mC]*dA*dT*d[5mC]*k[5mC]*kT*kA) [compound 1075319]
- YAP1 (% UTC) (Yap1 mRNA [1]; [3]): 59 % UTC

Substance: 1074433 (antisense kA*kA*kG*dT*d[5mC]*dT*dG*dA*dG*dT*dA*dT*dT*kT*kA*kG) [Compound 1074433]
- YAP1 (% UTC) (Yap1 mRNA [1]; [6]): 5* % UTC

Substance: 1074945 (antisense k[5mC]*kA*kA*dA*dA*d[5mC]*d[5mC]*d[5mC]*dT*dT*dT*dG*dG*kT*k[5mC]*kT) [Compound 1074945]
- YAP1 (% UTC) (Yap1 mRNA [1]; [6]): 74 % UTC

Substance: 1076034 (kA*kA*kT*dT*dA*dG*dA*dA*dA*d[5mC]*dT*dT*dG*kG*k[5mC]*k[5mC]; antisense) [Compound 1076034]
- YAP1 (% UTC) (Yap1 mRNA [1]; [8]): 74 % UTC

Substance: 1075810 (kG*kT*kA*dG*d[5mC]*dA*dA*dT*dA*dG*dA*dG*dT*kA*kA*k[5mC]; antisense) [Compound 1075810]
- YAP1 (% UTC) (Yap1 mRNA [1]; [8]): 7 % UTC

Substance: 1075094 (kG*kA*kT*dA*dA*dA*dT*dG*dT*dA*dA*d[5mC]*dT*kA*kG*k[5mC]; antisense) [compound 1075094]
- YAP1 (% UTC) (Yap1 mRNA [1]; [4]): 10 % UTC

Substance: 1074434 (antisense kA*k[5mC]*kT*dT*d[5mC]*dT*dA*dA*dG*dT*d[5mC]*dT*dG*kA*kG*kT) [Compound 1074434]
- YAP1 (% UTC) (Yap1 mRNA [1]; [8]): 51* % UTC

Substance: 1076225 (kA*kT*kA*dT*dA*dA*dA*d[5mC]*d[5mC]*dT*dT*dG*d[5mC]*kT*kA*k[5mC]; antisense) [Compound 1076225]
- YAP1 (% UTC) (Yap1 mRNA [1]; [6]): 66 % UTC

Substance: 1074336 (antisense k[5mC]*k[5mC]*kA*dG*dT*dG*dT*dT*dG*dG*dT*dA*dA*k[5mC]*kT*kG) [Compound 1074336]
- YAP1 (% UTC) (Yap1 mRNA [1]; [5]): 97 % UTC

Substance: 1075235 (antisense kA*kG*kT*dA*dA*dA*dT*dA*d[5mC]*dT*d[5mC]*dT*dA*kG*kT*kT) [Compound 1075235]
- YAP1 (% UTC) (Yap1 mRNA [1]; [7]): 38 % UTC

Substance: 1074294 (antisense kT*kT*kG*dG*dA*dG*dT*dT*dG*d[5mC]*dT*dG*d[5mC]*k[5mC]*kA*k[5mC]) [compound 1074294]
- YAP1 (% UTC) (Yap1 mRNA [1]; [4]): 80 % UTC

Substance: 1076279 (k[5mC]*kA*kA*dT*dA*dA*dG*dG*dA*d[5mC]*dA*dG*dG*kA*k[5mC]*k[5mC]; antisense) [compound 1076279]
- YAP1 (% UTC) (Yap1 mRNA [1]; [3]): 71 % UTC

Substance: 1075650 (kA*kT*kA*dT*dT*dA*d[5mC]*dA*dA*dT*d[5mC]*d[5mC]*d[5mC]*kA*kG*k[5mC]; antisense) [Compound 1075650]
- YAP1 (% UTC) (Yap1 mRNA [1]; [8]): 48 % UTC

Substance: 1074999 (antisense kA*kA*k[5mC]*d[5mC]*dA*dA*d[5mC]*dA*d[5mC]*dG*d[5mC]*dG*dA*k[5mC]*k[5mC]*kT) [compound 1074999]
- YAP1 (% UTC) (Yap1 mRNA [1]; [3]): 77 % UTC

Substance: 1075031 (antisense kA*kT*kT*dT*dA*dA*dT*dA*dT*dT*d[5mC]*dG*dA*k[5mC]*kA*k[5mC]) [compound 1075031]
- YAP1 (% UTC) (Yap1 mRNA [1]; [3]): 52 % UTC

Substance: 1075895 (antisense kA*k[5mC]*kT*d[5mC]*dG*dA*dA*dA*dG*d[5mC]*dT*dG*dG*kG*k[5mC]*k[5mC]) [compound 1075895]
- YAP1 (% UTC) (Yap1 mRNA [1]; [3]): 38 % UTC

Substance: 1075297 (kG*kT*kT*dA*dA*dT*dT*dA*dT*dA*dA*dG*d[5mC]*kT*kG*kT; antisense) [Compound 1075297]
- YAP1 (% UTC) (Yap1 mRNA [1]; [6]): 10 % UTC

Substance: 1074978 (antisense kT*kT*kG*d[5mC]*d[5mC]*dA*dG*dT*dT*d[5mC]*dT*dT*dG*kT*kT*k[5mC]) [Compound 1074978]
- YAP1 (% UTC) (Yap1 mRNA [1]; [8]): 38 % UTC

Substance: 1074742 (kA*kA*kA*dG*dG*dA*d[5mC]*dT*d[5mC]*dT*dT*dA*dG*kG*kT*k[5mC]; antisense) [compound 1074742]
- YAP1 (% UTC) (Yap1 mRNA [1]; [4]): 25 % UTC

Substance: 1075030 (antisense kT*kT*kA*dA*dT*dA*dT*dT*d[5mC]*dG*dA*d[5mC]*dA*k[5mC]*kT*kG) [compound 1075030]
- YAP1 (% UTC) (Yap1 mRNA [1]; [4]): 37 % UTC

Substance: 1074530 (k[5mC]*kT*kA*dA*dA*d[5mC]*dT*dA*d[5mC]*dT*dT*d[5mC]*dA*kA*kA*k[5mC]; antisense) [Compound 1074530]
- YAP1 (% UTC) (Yap1 mRNA [1]; [8]): 88 % UTC
